Laboratory results as given in PubChem BioAssay AID2060609 (Molecular Pharmacology Branch, DTP, NCI, 2025).
Several values for one entry are separate records, joined by “and”; a condition that tells them apart may be missing. Identical values can stand only once.

Tested on: 855422-203-R-J1-PDC complex spheroids, viability
Assay: Anticancer human tumor 855422-203-R-J1-PDC patient-derived bladder carcinoma cell line growth inhibition [CLK]
Settings: for viability, T/C: stronger effect = lower value
How it was run: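 Patient-derived tumor cells grown as complex spheroids with HUVEC endothelial cells and mesenchymal stem cells, treated with drug combinations. Concentrations descend in half-log steps from near clinical Cmax, or from 10 microM if Cmax unknown.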
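Note: spheroids exposed to drugs for seven days before readout.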
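Throughout, for viability, T/C: 100% = DMSO vehicle control wells.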

For `C=CC(=O)Nc1cc(Nc2nccc(-c3cn(C)c4ccccc34)n2)c(OC)cc1N(C)CCN(C)C` + CNC(=O)c1ccc(Nc2nc(OC3CCCC3)c3c(-c4ccc5nc(C)oc5c4)c[nH]c3n2)c(OC)c1, which IC50 (curve of first compound, second compound 0.0316 µM) is on record?
Its IC50 is > 300 nM.

What about the IC50 (curve of first compound, second compound 0.1 µM) of the same compound?
Its IC50 is 1.17 nM.

What about the IC50 (curve of first compound, second compound 0.316 µM) of the same compound?
Its IC50 is < 0.949 nM.

What about the IC50 (curve of first compound, second compound 1 µM) of the same compound?
Its IC50 is < 0.949 nM.

And the IC50 (curve of first compound, second compound 3.16 µM)?
The IC50 was < 0.949 nM.

And the IC50 (curve of first compound, second compound 10 µM)?
The IC50 was < 0.949 nM.

What about the viability, T/C (second compound 0.0316 µM, first compound 0.000949 µM) of the same compound?
Its viability, T/C is 108%.

What about the viability, T/C (second compound 0.0316 µM, first compound 0.003 µM) of the same compound?
The viability, T/C was 112%.

And the viability, T/C (second compound 0.0316 µM, first compound 0.00949 µM)?
Its viability, T/C is 109%.

And the viability, T/C (second compound 0.0316 µM, first compound 0.03 µM)?
Its viability, T/C is 97.1%.

And the viability, T/C (second compound 0.0316 µM, first compound 0.0949 µM)?
The viability, T/C was 98.8%.

And the viability, T/C (second compound 0.0316 µM, first compound 0.3 µM)?
Its viability, T/C is 76.3%.

And the viability, T/C (second compound 0.1 µM, first compound 0.000949 µM)?
Its viability, T/C is 53.6%.

What about the viability, T/C (second compound 0.1 µM, first compound 0.003 µM) of the same compound?
The viability, T/C was 33.9%.

What about the viability, T/C (second compound 0.1 µM, first compound 0.00949 µM) of the same compound?
The viability, T/C was 29.3%.

What about the viability, T/C (second compound 0.1 µM, first compound 0.03 µM) of the same compound?
The viability, T/C was 29.2%.

What about the viability, T/C (second compound 0.1 µM, first compound 0.0949 µM) of the same compound?
Its viability, T/C is 28.6%.

What about the viability, T/C (second compound 0.1 µM, first compound 0.3 µM) of the same compound?
The viability, T/C was 22.4%.

And the viability, T/C (second compound 0.316 µM, first compound 0.000949 µM)?
The viability, T/C was 21.3%.

And the viability, T/C (second compound 0.316 µM, first compound 0.003 µM)?
The viability, T/C was 22.4%.

And the viability, T/C (second compound 0.316 µM, first compound 0.00949 µM)?
The viability, T/C was 19.1%.

And the viability, T/C (second compound 0.316 µM, first compound 0.03 µM)?
Its viability, T/C is 21.8%.

What about the viability, T/C (second compound 0.316 µM, first compound 0.0949 µM) of the same compound?
The viability, T/C was 24%.

What about the viability, T/C (second compound 0.316 µM, first compound 0.3 µM) of the same compound?
Its viability, T/C is 20.1%.

And the viability, T/C (second compound 1 µM, first compound 0.000949 µM)?
The viability, T/C was 19.4%.

And the viability, T/C (second compound 1 µM, first compound 0.003 µM)?
Its viability, T/C is 21%.

And the viability, T/C (second compound 1 µM, first compound 0.00949 µM)?
The viability, T/C was 27.3%.

What about the viability, T/C (second compound 1 µM, first compound 0.03 µM) of the same compound?
The viability, T/C was 23.5%.

What about the viability, T/C (second compound 1 µM, first compound 0.0949 µM) of the same compound?
Its viability, T/C is 22%.

What about the viability, T/C (second compound 1 µM, first compound 0.3 µM) of the same compound?
Its viability, T/C is 16.2%.

What about the viability, T/C (second compound 3.16 µM, first compound 0.000949 µM) of the same compound?
The viability, T/C was 25.8%.

And the viability, T/C (second compound 3.16 µM, first compound 0.003 µM)?
The viability, T/C was 23.1%.

What about the viability, T/C (second compound 3.16 µM, first compound 0.00949 µM) of the same compound?
Its viability, T/C is 20.8%.

What about the viability, T/C (second compound 3.16 µM, first compound 0.03 µM) of the same compound?
The viability, T/C was 21.9%.

What about the viability, T/C (second compound 3.16 µM, first compound 0.0949 µM) of the same compound?
Its viability, T/C is 21.9%.

What about the viability, T/C (second compound 3.16 µM, first compound 0.3 µM) of the same compound?
The viability, T/C was 16.5%.

What about the viability, T/C (second compound 10 µM, first compound 0.000949 µM) of the same compound?
The viability, T/C was 19.7%.

And the viability, T/C (second compound 10 µM, first compound 0.003 µM)?
Its viability, T/C is 21.6%.

And the viability, T/C (second compound 10 µM, first compound 0.00949 µM)?
Its viability, T/C is 18.3%.

And the viability, T/C (second compound 10 µM, first compound 0.03 µM)?
Its viability, T/C is 19.1%.

And the viability, T/C (second compound 10 µM, first compound 0.0949 µM)?
The viability, T/C was 23.3%.

What about the viability, T/C (second compound 10 µM, first compound 0.3 µM) of the same compound?
The viability, T/C was 21.9%.

For `C=CC(=O)Nc1cc(Nc2nccc(-c3cn(C)c4ccccc34)n2)c(OC)cc1N(C)CCN(C)C`, which viability, T/C (compound 0.000949 µM) is on record?
Its viability, T/C is 112% and 158%.

What about the viability, T/C (compound 0.003 µM) of the same compound?
Its viability, T/C is 91.3% and 98.2%.

What about the viability, T/C (compound 0.00949 µM) of the same compound?
Its viability, T/C is 107% and 117%.

And the viability, T/C (compound 0.03 µM)?
The viability, T/C was 99.9% and 90.9%.

What about the viability, T/C (compound 0.0949 µM) of the same compound?
Its viability, T/C is 108% and 118%.

And the viability, T/C (compound 0.3 µM)?
Its viability, T/C is 101% and 98.4%.

What about the IC50 (curve of compound) of the same compound?
The IC50 was > 300 nM.

With `Nc1ccccc1NC(=O)c1ccc(CNC(=O)OCc2cccnc2)cc1` as the compound, how does the viability, T/C (compound 0.0316 µM) read?
Its viability, T/C is 81.5% and 97.5%.

And the viability, T/C (compound 0.1 µM)?
The viability, T/C was 72.8% and 73.2%.

What about the viability, T/C (compound 0.316 µM) of the same compound?
The viability, T/C was 75.6% and 75%.

And the viability, T/C (compound 1 µM)?
The viability, T/C was 60.6% and 54.4%.

And the viability, T/C (compound 3.16 µM)?
The viability, T/C was 21.2% and 28.1%.

And the viability, T/C (compound 10 µM)?
The viability, T/C was 2.46% and 1.54%.

And the IC50 (curve of compound)?
Its IC50 is 1360 nM and 1140 nM.

With `C#Cc1c(F)ccc2cc(O)cc(-c3ncc4c(N5CC6CCC(C5)N6)nc(OCC56CCCN5CC(F)C6)nc4c3F)c12` (stereo not given) as the compound, how does the viability, T/C (compound 0.0316 µM) read?
Its viability, T/C is 118% and 106%.

What about the viability, T/C (compound 0.1 µM) of the same compound?
Its viability, T/C is 92.7% and 95.3%.

What about the viability, T/C (compound 0.316 µM) of the same compound?
Its viability, T/C is 117% and 113%.

And the viability, T/C (compound 1 µM)?
Its viability, T/C is 114% and 97.7%.

And the viability, T/C (compound 3.16 µM)?
The viability, T/C was 119% and 104%.

What about the viability, T/C (compound 10 µM) of the same compound?
Its viability, T/C is 98.7% and 112%.

And the IC50 (curve of compound)?
The IC50 was > 10000 nM.

Which viability, T/C (compound 0.00316 µM) does the source give for `CCc1c2c(nc3ccc(O)cc13)-c1cc3c(c(=O)n1C2)COC(=O)[C@]3(O)CC` here?
Its viability, T/C is 94.3% and 93.4%.

What about the viability, T/C (compound 0.01 µM) of the same compound?
The viability, T/C was 16.8% and 20.4%.

What about the viability, T/C (compound 0.0316 µM) of the same compound?
Its viability, T/C is 15.4% and 10.1%.

What about the viability, T/C (compound 0.1 µM) of the same compound?
Its viability, T/C is 5.45% and 6.24%.

And the viability, T/C (compound 0.316 µM)?
Its viability, T/C is 3.48% and 3.36%.

What about the viability, T/C (compound 1 µM) of the same compound?
The viability, T/C was 1.87% and 2.42%.

And the IC50 (curve of compound)?
Its IC50 is 6.21 nM and 6.32 nM.
